Experimental data from US5714494A, “Xanthines in the 7th position with a benzyl acetic acid moiety” (Bayer Aktiengesellschaft, priority 1995, dated 1998).

Key:
[1] = test system: VLDL secretion; test: Determination of VLDL secretion in vivo in the hamster (Triton hamster); design: species or system golden hamster; conditions: 6 mg/kg i.v.
Procedure: The effects of the test substances on VLDL secretion in vivo is investigated in the hamster. To do this, golden hamsters are anaesthetized with Ketavet (83 mg/kg s.c.) and Nembutal (50 mg/kg i.p.) after premedication with atropine ([…] s.c.). When the animals have become reflex-free, the jugular vein is exposed and cannulated. 0.25 ml/kg of a 20% strength solution of Triton WR 1339 in physiological saline solution is then administered. This detergent inhibits the lipoprotein lipase and thus leads to an increase in the triglyceride level as a result of lack of catabolism of secreted VLDL particles. This triglyceride increase can be used as a measure of the VLDL secretion rate. Blood is taken from the animals before and one and two hours after administration of the detergent by puncture of the retroorbital venous plexus. The blood is incubated for two hours at room temperature, then overnight at 4° C. in order to finish clotting completely. […] The triglyceride concentration in the serum thus obtained is determined with the aid of a modified commercially available enzyme test (Merckotest® triglyceride No. 14354). […] The optical density is then determined at a wavelength of 492 nm in an automatic plate-reading apparatus (SLT spectra). […] The triglyceride concentration contained in the samples is determined with the aid of a standard curve measured in parallel. […]

[2] = test system: ApoB-100-associated lipoproteins; test: Inhibition of the release of ApoB-100-associated lipoproteins from HepG2 cells (immunoassay for human LDL); assay type: cell-based; conditions: light absorption 450 nm vs solvent control
Procedure: The test for detecting inhibition of the release of ApoB-100-associated lipoproteins from liver cells was carried out in vitro using cultured liver cells, preferably using cells of the human line HepG2. These cells are grown under standard conditions in medium for the culture of eucaryotic cells, preferably in RPMI 1640 using 10% foetal calf serum. HepG2 cells synthesize and secrete into the culture supernatant ApoB-100-associated lipoprotein particles which in principle are synthesized in a similar manner to the VLDL and LDL particles which are to be found in the plasma.
These particles can be detected using an immunoassay for human LDL. This immunoassay is carried out using antibodies which have been induced in the rabbit against human LDL under standard conditions. The anti-LDL antibodies (rabbit anti-LDL-Ab) were purified by affinity chromatography on an immunosorbent using human LDL. These purified rabbit anti-LDL Ab are adsorbed on the surface of plastic. Expediently, this adsorption is carried out on the plastic surface of microtitre plates having 96 wells, preferably on MaxiSorp plates. If ApoB-100-associated particles are present in the supernatant of Hep-G2 cells, these can bind to the insolubilized rabbit anti-LDL Ab, and an immune complex is formed which is bound to the plastic surface. Unbound proteins are removed by washing. The immune complex located on the plastic surface is detected using monoclonal antibodies which have been induced against human LDL according to standard conditions and purified. These antibodies were conjugated with the enzyme peroxidase. Peroxidase converts the colourless substrate TMB into a coloured product in the presence of H2 O2. After acidification of the reaction mixture using H2 SO4, the specific light absorption at 450 mn is determined, which is a measure of the amount of ApoB-100-associated particles which have been secreted into the culture supernatant by the HepG2 cells.
The IC50 value indicates at which substance concentration the light absorption is inhibited by 50% in comparison with the control (solvent control without substance).

[3] = test system: intestinal triglyceride absorption; test: Inhibition of intestinal triglyceride absorption in vivo (rats); design: species or system male Wistar rats; conditions: po; for ED50: Rattus norvegicus, serum triglyceride increase 2 h after triglyceride loading, fasting rats, read-out: Absorption ED50 or % inhibition; for Absorption ED50 or % inhibition: 2 h
Procedure: The substances which are to be investigated for their triglyceride absorption-inhibiting action in vivo are administered orally to male Wistar rats having a body weight of between 170 and 230 g. For this purpose, the animals are divided into groups of 6 animals 18 hours before administration of the substance and the feed is then withdrawn from them. Drinking water is available to the animals ad libitum. The animals of the control groups receive an aqueous tragacanth suspension or a tragacanth suspension which contains olive oil. The tragacanth-olive oil suspension is prepared using an Ultra-Turrax. The substances to be investigated are suspended directly before substance administration in a corresponding tragacanth-olive oil suspension, also using an Ultra-Turrax.
Before stomach tube application, blood is taken from each rat by puncture of the retroorbital venous plexus to determine the basal serum triglyceride content. The tragacanth suspension, the tragacanth-olive oil suspensions without substance (control animals) and the substances suspended in a corresponding tragacanth-olive oil suspension are then administered to the fasting animals using a stomach tube. Further taking of blood for the determination of the postprandial serum triglyceride rise is carried out, as a rule, 1,2 and 3 hours after stomach tube application.
The blood samples are centrifuged and, after recovering the serum, the triglycerides are determined photometrically using an EPOS analyzer 5060 (Eppendorf Geratebau, Netheler & Hinz GmbH, Hamburg). The triglycerides are determined by fully enzymatic means using a commercially available UV test.
The postprandial serum triglyceride increase is determined by subtraction of the triglyceride preliminary value of each animal from its corresponding postprandial triglyceride concentrations (1,2 and 3 hours after administration).
The differences (in mmol/l) at each time 1, 2 and 3 hours) are averaged in the groups, and the average values of the serum triglyceride increase (ΔTG) of the substance-treated animals are compared with the animals which only received the tragacanth-oil suspension.
Likewise, the serum triglyceride course of the control animals which received only tragacanth is calculated. The substance effect at each time (1, 2 or 3 hours) is determined as follows and given in Δ% of the oil-loaded control. [formula]
Effect of 10 mg of test substance/kg of body weight p.o. on the triglyceride increase (Δ%) 2 h after a triglyceride loading in the serum of fasting rats. The serum triglyceride increase of fat-loaded control animals based on the serum triglyceride level of tragacanth control animals corresponds to 100%. n=6 animals per group.
Statistical assessment was carried out using student3 s t test after prior checking of the variances for homogeneity.

[4] = test system: VLDL secretion; test: Inhibition of VLDL secretion in vivo (rat) (Triton rat); conditions: Rattus norvegicus, po, 2 h; for inhibition in vivo at 3 mg/kg: 3 mg/kg p.o., (n.s.) for 112, 114, 117, 154, 175, 176, 227, read-out: Triton rat % TG inhibition (p.o.) 2 h after substance
Procedure: The action of the test substances on VLDL secretion is also investigated in the rat. To do this, 500 mg/kg of body weight (2.5 ml/kg) of Triton WR-1339, dissolved in physiological saline solution, are administered to rats intravenously in the tail vein. Triton WR-1339 inhibits lipoprotein lipase and thus leads through inhibition of VLDL catabolism to an increase in the triglyceride and cholesterol level. These increases can be used as a measure of the VLDL secretion rate.
Blood is taken from the animals before and one and two hours after administration of the detergent by puncture of the retroorbital venous plexus. The blood is incubated at room temperature for 1 h for clotting and the serum is recovered by centrifugation at 10,000 g for 20 s. The triglycerides are then determined photometrically at a wavelength of 540 nm by means of a commercially available coupled enzyme test (Sigma Diagnostics®, No. 339). Measurement is carried out with the aid of a likewise coupled enzyme test (Boehringer Mannheim®, No. 1442350) at a wavelength of 546 nm. Samples with triglyceride or cholesterol concentrations which exceed the measuring range of the methods are diluted with physiological saline solution. The respective serum concentrations are determined with the aid of standard series measured in parallel. Test substances are administered orally, intravenously or subcutaneously immediately after the Triton injection.

[5] = Homo sapiens, HepG2, HepG2 cells

IC50 [2, 5] [nM]	IC50 ([2]; HepG2 cells) [nM]	SMILES	Triton hamster % CH inhibition 2 h after substance ([1]; cholesterol) [%]	Triton hamster % TG inhibition 2 h after substance ([1]; triglycerides) [%]	ED50 [3] [mg/kg]	inhibition in vivo at 3 mg/kg [4] [%]	Absorption ED50 or % inhibition [3] [mg/kg]	inhibition in vivo at 20 mg/kg ([4]; 20 mg/kg p.o., read-out: Triton rat % TG inhibition (p.o.) 2 h after substance) [%]
34	–	Cn1c(=O)c2c(nc(-c3ccccc3)n2Cc2ccc(C(C(=O)N[C@@H](CO)c3ccccc3)C3CCCC3)cc2)n(C)c1=O (stereo partly shown) [Example 129]	25	25	20	–	–	–
8	–	Cn1c(=O)c2c(nc(-c3cccs3)n2Cc2ccc(C(C(=O)N[C@@H](CO)c3ccccc3)C3CCCC3)cc2)n(C)c1=O (stereo partly shown) [Example 157]	–	–	–	11.3	> 2	–
40	–	Cn1c(=O)c2c(nc(CCc3ccccc3)n2Cc2ccc(C(C(=O)N[C@@H](CO)c3ccccc3)C3CCCC3)cc2)n(C)c1=O (stereo partly drawn) [Example 227, 2-(R&S)-Cyclopentyl-2-[4-(1,3-dimethyl-2,6-dioxo-8-(2-phenyl-ethyl)-1,2,3,6-tetra-hydro-purin-7-yl-methyl)phenyl]acet-N-[1-(R)-1-phenyl-2-hydroxy-ethyl)amide]	–	–	–	-8	> 6	–
–	39	Cn1c(=O)c2c(ncn2Cc2ccc(C(C(=O)N[C@@H](CO)c3ccccc3)C3CCCC3)cc2)n(C)c1=O (single isomer, unassigned) [Example 114]	–	–	< 2	14.1	–	–
–	25	Cn1c(=O)c2c(nc(-c3ccccc3)n2Cc2ccc(C(C(=O)N[C@@H](CO)c3ccccc3)C3CCCC3)cc2)n(C)c1=O (single isomer, unassigned) [Example 130]	–	–	5	–	–	36
4	–	Cc1ccc(-c2nc3c(c(=O)n(C)c(=O)n3C)n2Cc2ccc(C(C(=O)N[C@@H](CO)c3ccccc3)C3CCCC3)cc2)cc1 (stereo partly shown) [Example 112]	–	–	3	17	–	–
–	3	Cn1c(=O)c2c(nc(Br)n2Cc2ccc(C(C(=O)N[C@@H](CO)c3ccccc3)C3CCCC3)cc2)n(C)c1=O (single isomer, unassigned) [Example 117]	–	–	3	25	–	–
–	23	Cc1ccc(-c2nc3c(c(=O)n(C)c(=O)n3C)n2Cc2ccc(C(C(=O)N[C@@H](CO)c3ccccc3)C3CCCC3)cc2)cc1 (single isomer, unassigned) [Example 136]	–	–	–	28	2	–
